# Columns and labels:
# [1] = biological target: full-length MALT1 protein (Strep-MALT1(1-824)-His) (Homo sapiens (Human), UniProt Q9UDY8); assay: MALT1 Biochemical Protease Assay (Ac-LRSR-AMC substrate); details: 10 nM FL MALT1, 200 μM Ac-LRSR-AMC, 4 h at RT; read-out: MALT1_Biochemical activity (Ac-LRSR-amc) IC50
# Summary of the method: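 Full-length MALT1 pre-incubated with compounds (30 μM to 0.5 nM, 11 threefold steps) for 50 min at RT. After Ac-LRSR-AMC was added, the reaction ran 4 h at RT and AMC fluorescence was read. IC50 and Hill slope from curve fitting against no-enzyme and no-compound controls.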
# [2] = tested on: IL6 secretion by OCI-LY3 ABC-DLBCL cells; assay: Human IL6 Mesoscale assay (OCI-LY3); format: cell-based; details: Homo sapiens, 24 h
# Procedure: (§1) NFKB signaling regulates the secretion of multiple cytokines, including IL6 and IL10. Secretion of the cytokines IL6 and IL10 by TMD8 or OCI-LY3 ABC-DLBCL cells was measured using a mesoscale assay. Inhibition of NFKB signaling by MALT1 or BTK inhibitors results in a decrease of IL6/10 secretion.
# (§2) TMD8 or OCI-LY3 cells were propagated in RPMI-1640 (Sigma Aldrich) supplemented with 10% fetal bovine serum (HyClone), 1 mM sodium pyruvate (Invitrogen), 2 mM L-glutamine (Sigma Aldrich) and 1% PenStrep (Sigma Aldrich). Cell passage number should not exceed 30. Cells should be kept between 0.5-2.5 million cells per mL during culturing and cells should be supplemented every 2-3 days with fresh 50 μM beta-mercaptoenthanol. No beta-mercaptoethanol was used during the mesoscale assay.
# (§3) For the Mesoscale assay, 100,000 TMD8 or OCI-LY3 cells were seeded per well into black-colored 96-well plates with clear bottom (Corning #3904) and test compounds were added in 9 dilution steps (1:2) ranging from 15 μM to 58.6 nM (final DMSO concentration 0.3%). DMSO control wells were used to determine the maximum signal (High Control (HC)). Treatment with the BTK inhibitor RN486 in a dose range from 30 nM to 131 pM (9 dilutions of 1:2) served as a positive control for NFKB pathway inhibition and was used to determine the maximum inhibition (Low Control (LC)). Compounds and cells were incubated for 24 h at 37° C. and 5% CO2 (assay volume is 150 μL). After 24 h of incubation 50 μL of the supernatant was transferred to a MSD plate (V-Plex Proinflammation Panel 1 (human) kit, Mesoscale (MSD)) and incubated for 2 h with vigorous shaking (600 rpm) at room temperature. Following incubation, plates were washed 3× with PBS+0.05% Tween-20 and 25 μL detection antibody solution (IL6 & IL10 antibodies in diluent 3 (MSD)) was added per well followed by 2 h of incubation with vigorous shaking (600 rpm) at room temperature. After 3× washes with PBS+0.05% Tween-20, plates were incubated with 150 μL 2× Read Buffer T and read on SECTOR imager.
# [3] = tested on: IL10 secretion by OCI-LY3 ABC-DLBCL cells; assay: Human IL10 Mesoscale assay (OCI-LY3); format: cell-based; details: Homo sapiens, 24 h
# Procedure: as §1, §2, §3
# full-length MALT1 protein (Strep-MALT1(1-824)-His), sequence (Q9UDY8 whole entry): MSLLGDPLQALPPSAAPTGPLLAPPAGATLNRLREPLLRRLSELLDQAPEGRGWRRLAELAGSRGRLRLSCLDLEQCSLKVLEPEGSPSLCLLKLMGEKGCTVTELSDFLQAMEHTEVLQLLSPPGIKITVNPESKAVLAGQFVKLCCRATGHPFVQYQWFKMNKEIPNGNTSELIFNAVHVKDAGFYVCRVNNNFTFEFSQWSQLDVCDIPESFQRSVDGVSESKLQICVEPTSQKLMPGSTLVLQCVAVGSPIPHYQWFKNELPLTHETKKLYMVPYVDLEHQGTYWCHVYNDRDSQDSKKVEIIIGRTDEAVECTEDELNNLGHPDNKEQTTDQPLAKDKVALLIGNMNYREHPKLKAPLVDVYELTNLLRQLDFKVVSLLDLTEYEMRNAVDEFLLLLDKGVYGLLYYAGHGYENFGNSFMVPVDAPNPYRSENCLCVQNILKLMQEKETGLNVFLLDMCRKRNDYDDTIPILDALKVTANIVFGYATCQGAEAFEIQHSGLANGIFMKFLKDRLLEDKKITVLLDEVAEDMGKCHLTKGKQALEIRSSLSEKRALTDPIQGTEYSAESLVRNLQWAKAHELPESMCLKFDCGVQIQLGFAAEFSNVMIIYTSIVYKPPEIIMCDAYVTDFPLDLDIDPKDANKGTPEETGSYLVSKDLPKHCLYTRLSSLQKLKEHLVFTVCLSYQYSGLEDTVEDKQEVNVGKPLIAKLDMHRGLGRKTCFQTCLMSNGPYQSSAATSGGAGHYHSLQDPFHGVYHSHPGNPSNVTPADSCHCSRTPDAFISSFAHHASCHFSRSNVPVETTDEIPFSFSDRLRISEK
Structure (SMILES),IC50 [1],IC50 [2],IC50 [3]
"Nc1nc2cccc(-n3ncc(C(=O)Nc4cnc(-n5nccn5)c(Cl)c4)c3C(F)(F)F)c2s1 [Cpd 278, 1-(2-aminobenzo[d]thiazol-7-yl)-N-(5-chloro-6-(2H-1,2,3-triazol-2-yl)pyridin-3-yl)-5-(trifluoromethyl)-1H-pyrazole-4-carboxamide]",129 nM,141 nM,219 nM
"Cc1ncc(NC(=O)c2cnn(-c3cccc4c(=O)[nH]ccc34)c2C(F)(F)F)cc1C(F)(F)F [Cpd 348, N-(6-methyl-5-(trifluoromethyl)pyridin-3-yl)-1-(1-oxo-1,2-dihydroisoquinolin-5-yl)-5-(trifluoromethyl)-1H-pyrazole-4-carboxamide]",195 nM,100 nM,68 nM
"O=C(Nc1cnc(-n2nccn2)c(Cl)c1)c1cnn(-c2cccc3ncccc23)c1Cl [Cpd 187, 5-Chloro-N-(5-chloro-6-(2H-1,2,3-triazol-2-yl)pyridin-3-yl)-1-(quinolin-5-yl)-1H-pyrazole-4-carboxamide]",178 nM,162 nM,112 nM
"Cn1ccc(-c2ncc(NC(=O)c3cnn(-c4ccc(F)c5ncccc45)c3C(F)(F)F)cc2Cl)n1 [Cpd 273, N-(5-chloro-6-(1-methyl-1H-pyrazol-3-yl)pyridin-3-yl)-1-(8-fluoroquinolin-5-yl)-5-(trifluoromethyl)-1H-pyrazole-4-carboxamide]",145 nM,85 nM,66 nM
"Nc1nccc2c(-n3ncc(C(=O)Nc4cnc(-n5nccn5)c(Cl)c4)c3C(F)(F)F)cccc12 [Cpd 330, 1-(1-aminoisoquinolin-5-yl)-N-(5-chloro-6-(2H-1,2,3-triazol-2-yl)pyridin-3-yl)-5-(trifluoromethyl)-1H-pyrazole-4-carboxamide]",646 nM,21 nM,25 nM
"N#Cc1cncc(NC(=O)c2cnn(-c3cccc4c(=O)[nH]ccc34)c2C(F)(F)F)c1 [Cpd 346, N-(5-cyanopyridin-3-yl)-1-(1-oxo-1,2-dihydroisoquinolin-5-yl)-5-(trifluoromethyl)-1H-pyrazole-4-carboxamide]",275 nM,457 nM,224 nM
"Cc1nc2c(-n3ncc(C(=O)Nc4cnc(-n5nccn5)c(C#N)c4)c3C(F)(F)F)cccc2o1 [Cpd 219, N-(5-cyano-6-(2H-1,2,3-triazol-2-yl)pyridin-3-yl)-1-(2-methylbenzo[d]oxazol-4-yl)-5-(trifluoromethyl)-1H-pyrazole-4-carboxamide]",2690 nM,102 nM,126 nM
"COc1cc(NC(=O)c2cnn(-c3cccc4c(=O)[nH]ccc34)c2C(F)(F)F)ccn1 [Cpd 360, N-(2-methoxypyridin-4-yl)-1-(1-oxo-1,2-dihydroisoquinolin-5-yl)-5-(trifluoromethyl)-1H-pyrazole-4-carboxamide]",2690 nM,20 nM,20 nM
"N#Cc1c(C(=O)Nc2cnc(-n3nccn3)c(Cl)c2)cnn1-c1cccc2ncccc12 [Cpd 186, N-(5-Chloro-6-(2H-1,2,3-triazol-2-yl)pyridin-3-yl)-5-cyano-1-(quinolin-5-yl)-1H-pyrazole-4-carboxamide]",380 nM,1120 nM,891 nM
"O=C(Nc1cnc(-n2nccn2)c(Cl)c1)c1cnn(-c2noc3ccccc23)c1C(F)(F)F [Cpd 284, 1-(benzo[d]isoxazol-3-yl)-N-(5-chloro-6-(2H-1,2,3-triazol-2-yl)pyridin-3-yl)-5-(trifluoromethyl)-1H-pyrazole-4-carboxamide]",120 nM,589 nM,724 nM
"Nc1ncc(-n2ncc(C(=O)Nc3cncc(C(F)(F)F)c3)c2C(F)(F)F)c2ccccc12 [Cpd 342, 1-(1-aminoisoquinolin-4-yl)-5-(trifluoromethyl)-N-(5-(trifluoromethyl)pyridin-3-yl)-1H-pyrazole-4-carboxamide]",115 nM,162 nM,132 nM
"CNc1ncc(-n2ncc(C(=O)Nc3cnc(-n4nccn4)c(Cl)c3)c2C(F)(F)F)c2ccccc12 [Cpd 323, N-(5-chloro-6-(2H-1,2,3-triazol-2-yl)pyridin-3-yl)-1-(1-(methylamino)isoquinolin-4-yl)-5-(trifluoromethyl)-1H-pyrazole-4-carboxamide]",174 nM,195 nM,141 nM

# The next lines start with the values.
IC50 [1],IC50 [2],IC50 [3],Structure (SMILES)
95 nM,251 nM,91 nM,"O=C(Nc1cnc(-c2ncco2)c(Cl)c1)c1cnn(-c2ccc(F)c3ncccc23)c1C(F)(F)F [Cpd 288, N-(5-chloro-6-(oxazol-2-yl)pyridin-3-yl)-1-(8-fluoroquinolin-5-yl)-5-(trifluoromethyl)-1H-pyrazole-4-carboxamide]"
65 nM,72 nM,66 nM,"Cc1cc(-n2nccn2)c(Cl)cc1NC(=O)c1cnn(-c2cncc3c(F)cccc23)c1C(F)(F)F [Cpd 317, N-(5-chloro-2-methyl-4-(2H-1,2,3-triazol-2-yl)phenyl)-1-(8-fluoroisoquinolin-4-yl)-5-(trifluoromethyl)-1H-pyrazole-4-carboxamide]"
72 nM,417 nM,380 nM,"O=C(Nc1ccnc(C(F)(F)F)c1)c1cnn(-c2cnc(N3CC(O)C3)c3sccc23)c1C(F)(F)F [Cpd 210, 1-(7-(3-hydroxyazetidin-1-yl)thieno[2,3-c]pyridin-4-yl)-5-(trifluoromethyl)-N-(2-(trifluoromethyl)pyridin-4-yl)-1H-pyrazole-4-carboxamide]"
79 nM,129 nM,100 nM,"Nc1ncc(-n2ncc(C(=O)Nc3cc(Cl)c(-n4nccn4)cc3F)c2C(F)(F)F)c2ccccc12 [Cpd 327, 1-(1-aminoisoquinolin-4-yl)-N-(5-chloro-2-fluoro-4-(2H-1,2,3-triazol-2-yl)phenyl)-5-(trifluoromethyl)-1H-pyrazole-4-carboxamide]"
105 nM,537 nM,309 nM,"Nc1cnn(-c2ncc(NC(=O)c3cnn(-c4cccc5scnc45)c3C(F)(F)F)cc2Cl)n1 [Cpd 299, N-(6-(4-amino-2H-1,2,3-triazol-2-yl)-5-chloropyridin-3-yl)-1-(benzo[d]thiazol-4-yl)-5-(trifluoromethyl)-1H-pyrazole-4-carboxamide]"
76 nM,447 nM,251 nM,"Cn1ccc(-c2ncc(NC(=O)c3cnn(-c4cccc5nnsc45)c3C(F)(F)F)cc2Cl)n1 [Cpd 293, 1-(benzo[d][1,2,3]thiadiazol-7-yl)-N-(5-chloro-6-(1-methyl-1H-pyrazol-3-yl)pyridin-3-yl)-5-(trifluoromethyl)-1H-pyrazole-4-carboxamide]"
98 nM,28 nM,31 nM,"O=C(Nc1ccnc(C(F)(F)F)c1)c1cnn(-c2cncc3sccc23)c1C(F)(F)F [Cpd 364, 1-(thieno[2,3-c]pyridin-4-yl)-5-(trifluoromethyl)-N-(2-(trifluoromethyl)pyridin-4-yl)-1H-pyrazole-4-carboxamide]"
112 nM,229 nM,204 nM,"O=C(Nc1cnc(-n2nccn2)c(Cl)c1)c1cnn(-c2cnc(Cl)c3ccccc23)c1C(F)(F)F [Cpd 285, N-(5-chloro-6-(2H-1,2,3-triazol-2-yl)pyridin-3-yl)-1-(1-chloroisoquinolin-4-yl)-5-(trifluoromethyl)-1H-pyrazole-4-carboxamide]"
87 nM,72 nM,40 nM,"CC(O)c1cc(-n2ncc(C(=O)Nc3cnc(-n4nccn4)c(Cl)c3)c2C(F)(F)F)c2ccccc2n1 (stereo not drawn) [Cpd 374, N-(5-chloro-6-(2H-1,2,3-triazol-2-yl)pyridin-3-yl)-1-(2-(1-hydroxyethyl)quinolin-4-yl)-5-(trifluoromethyl)-1H-pyrazole-4-carboxamide]"
107 nM,20 nM,18 nM,"O=C(Nc1ccnc(C(F)(F)F)c1)c1cnn(-c2cccn3nccc23)c1C(F)(F)F [Cpd 319, 1-(pyrazolo[1,5-a]pyridin-4-yl)-5-(trifluoromethyl)-N-(2-(trifluoromethyl)pyridin-4-yl)-1H-pyrazole-4-carboxamide]"

# Reference: US10954214B2 (Janssen Pharmaceutica NV, priority 2016, dated 2021)
